The text below walks through data of US11702418B2, “SOS1 inhibitors” (priority 2019, dated 2023).

Test [1] concerns the target recombinant human SOS1 polypeptide (amino acids 560-1049) (Homo sapiens (Human), UniProt Q07889). The test can be described thus: biochemical. It is filed as binding. To be noted: read-out: Ki, Inhibition of Labeled Tracer Binding to SOS1.
The test system of a further test is pERK in MKN1 cells. The test can be described thus: cells. It counts as cell-based. The note with it: Homo sapiens, MKN-1, pERK inhibition, In-Cell Western; MKN1 or H358 cells (Table 24 does not say which); 0.5-1 hour incubation; read-out: IC50.
Where [2] appears, read: HTRF displacement, Cy5 labelled tracer, Morrison equation for competitive binding.

Structures can show the parent of a compound that is named as a salt. Where two headings read alike, the source gives them in different places.

Chain of recombinant human SOS1 polypeptide (amino acids 560-1049) (Q07889 560-1049): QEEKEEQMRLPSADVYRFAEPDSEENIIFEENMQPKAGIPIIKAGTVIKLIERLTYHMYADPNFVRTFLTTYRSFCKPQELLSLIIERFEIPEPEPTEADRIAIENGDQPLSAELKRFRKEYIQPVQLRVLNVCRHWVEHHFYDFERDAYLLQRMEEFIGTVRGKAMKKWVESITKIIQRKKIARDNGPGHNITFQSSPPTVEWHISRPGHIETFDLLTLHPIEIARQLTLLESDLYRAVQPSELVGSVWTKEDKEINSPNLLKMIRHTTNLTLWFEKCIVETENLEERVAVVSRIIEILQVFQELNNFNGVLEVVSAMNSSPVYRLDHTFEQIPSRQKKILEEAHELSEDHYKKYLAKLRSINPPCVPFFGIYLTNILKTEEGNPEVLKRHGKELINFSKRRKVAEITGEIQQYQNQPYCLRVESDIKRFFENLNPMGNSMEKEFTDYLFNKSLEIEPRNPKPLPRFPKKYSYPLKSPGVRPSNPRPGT

For `Cc1nnc(N[C@H](C)c2cccc(C(F)(F)F)c2F)c2cc(N3CCN4CCOC[C@@H]4C3)ncc12` [Example 12-63], the Ki (usually the dissociation constant of the complex between target and ligand, obtained from inhibition or displacement) in test [1] (setting [2]) worked out at 0.83 nM.

For `Cc1c(C#N)cccc1[C@@H](C)Nc1nnc(C)c2cnc(N3C[C@H]4CC[C@@H]3CN4CCO)cc12` [Example 12-89], the Ki in test [1] (setting [2]) was found to be 0.25 nM.

As to `Cc1c([C@@H](C)Nc2nncc3ccc(N4CC5CCN(C)CC5C4)cc23)cccc1C(F)(F)F` (stereo partly drawn) [Example 1-31, N-((R)-1-(2-methyl-3-(trifluoromethyl)phenyl)ethyl)-7-(5-methyloctahydro-2H-pyrrolo[3,4-c]pyridin-2-yl)phthalazin-1-amine], the IC50 (in general, the point on the concentration scale where inhibition reaches its midpoint) in the test with pERK in MKN1 cells turned out to be 83 nM.

As for `Cc1nnc(N[C@H](C)c2cccc(C(F)F)c2F)c2cc(N3CCN4CCOC[C@@H]4C3)ncc12` [Example 12-100], the Ki in test [1] (setting [2]) is 1.07 nM.

For the molecule `Cc1c(C#N)cccc1[C@@H](C)Nc1nnc(C)c2ccc(N3CC(C)(N4CCOCC4)C3)cc12` [Example 10-83, (R)-2-methyl-3-(1-((4-methyl-7-(3-methyl-3-morpholinoazetidin-1-yl)phthalazin-1-yl)amino)ethyl)benzonitrile Formate salt], the Ki in test [1] is 4.54 nM.

Take `Cc1c(C#N)cccc1[C@@H](C)Nc1nnc(C)c2ccc(N3CC4(CCOC4)C3)cc12` [Example 10-80, (R)-2-methyl-3-(1-((4-methyl-7-(6-oxa-2-azaspiro[3.4]octan-2-yl)phthalazin-1-yl)amino)ethyl)benzonitrile Hydrochloride salt]: the Ki in test [1] was found to be 5.75 nM.

In the case of `CCN1CCN(c2cc3c(N[C@H](C)c4cccc(C(F)F)c4F)nnc(C)c3cn2)CC1` [Example 12-102], the inhibitory constant (Ki) in test [1] (setting [2]) was found to be 0.25 nM.

`Cc1c([C@@H](C)Nc2nncc3ccc(N4CCC5(CCN(C)C5)C4)cc23)cccc1C(F)(F)F` (stereo partly drawn) [Example 1-39, N-((R)-1-(2-methyl-3-(trifluoromethyl)phenyl)ethyl)-7-(7-methyl-2,7-diazaspiro[4.4]nonan-2-yl)phthalazin-1-amine]: in the test on pERK in MKN1 cells, the IC50 came to 170 nM.

For the molecule `Cc1c(C#N)cccc1[C@@H](C)Nc1nnc(C)c2cnc(N3CC[C@H](N(C)C)C3)cc12` [Example 12-69], the Ki in test [1] (setting [2]) was 0.93 nM.

On to `Cc1c([C@@H](C)Nc2nnc(C)c3cnc(N4CC(C)(N(C)C)C4)cc23)cc(F)cc1C(F)(F)F` [Example 12-110], for which the Ki in test [1] (setting [2]) stood at 3.54 nM.

With `Cc1nnc(N[C@H](C)c2cccc(C(F)(F)F)c2F)c2cc(N3CCN(C)CC3)ncc12` [Example 12-67], the Ki in test [1] (setting [2]) is 0.36 nM.

For the molecule `C[C@@H](Nc1nncc2ccc(N3CCOCC3)cc12)c1cc(-c2ccccc2CN(C)C)cs1` [Example 2-1, (R)—N-(1-(4-(2-((dimethylamino)methyl)phenyl)thiophen-2-yl)ethyl)-7-morpholinophthalazin-1-amine], the IC50 in the test with pERK in MKN1 cells stood at 308 nM.

For the molecule `Cc1c(F)cccc1[C@@H](C)Nc1nnc(C)c2cnc(N3CC(C)(O)C3)cc12` [Example 12-81], the Ki in test [1] (setting [2]) stood at 29 nM.

As to `Cc1nnc(N[C@H](C)c2cccc(C#N)c2C(F)(F)F)c2cc(N3C[C@H]4C[C@@H]3CO4)ncc12` [Example 12-127], the Ki in test [1] (setting [2]) is 6.08 nM.

With `Cc1c([C@@H](C)Nc2nnc(C)c3cnc(N4C[C@H]5C[C@@H]4CO5)cc23)cc(F)cc1C(F)(F)F` [Example 12-109], the Ki in test [1] (setting [2]) came to 2.61 nM.

Turning to `Cc1c([C@@H](C)Nc2nncc3ccc(N4CC(C(=O)N(C)C)C4)cc23)cccc1C(F)(F)F` [Example 1-24, (R)-N,N-dimethyl-1-(4-((1-(2-methyl-3-(trifluoromethyl)phenyl)ethyl)amino)phthalazin-6-yl)azetidine-3-carboxamide], the IC50 with pERK in MKN1 cells was determined as 25 nM.

As for `Cc1c(C#N)cccc1[C@@H](C)Nc1nnc(C)c2cnc(N3CC4(CCCN4C)C3)cc12` [Example 12-88], the Ki in test [1] (setting [2]) came to 2.03 nM.

In the case of `Cc1c(C#N)cc(F)cc1[C@@H](C)Nc1nnc(C)c2cnc(N3CC(C)(O)C3)cc12` [Example 12-107], the Ki in test [1] (setting [2]) was 35.6 nM.

As to `COCCN1CCC(Oc2ccc3cnnc(N[C@H](C)c4cccc(C(F)(F)F)c4C)c3c2)CC1` [Example 2-9, (R)-7-((1-(2-methoxyethyl)piperidin-4-yl)oxy)-N-(1-(2-methyl-3-(trifluoromethyl)phenyl)ethyl)phthalazin-1-amine], the IC50 in the test on pERK in MKN1 cells was 172 nM.

With `CNCc1nnc(N[C@H](C)c2cccc(C#N)c2C)c2cc(N3C[C@H]4C[C@@H]3CO4)ncc12` [Example 14-3, 3-((R)-1-((7-((1R,4R)-2-oxa-5-azabicyclo[2.2.1]heptan-5-yl)-4-((methylamino)methyl)pyrido[3,4-d]pyridazin-1-yl)amino)ethyl)-2-methylbenzonitrile], the Ki in test [1] (setting [2]) is 14.5 nM.

With `Cc1nnc(N[C@H](C)c2cccc(C(F)F)c2F)c2cc(N3C[C@H]4C[C@@H]3CO4)ncc12` [Example 12-99], the Ki in test [1] (setting [2]) turned out to be 0.93 nM.

As for `Cc1cccc([C@@H](C)Nc2nnc(C)c3cnc(N4CC5CC(C4)O5)cc23)c1F` [Example 12-134], the Ki in test [1] (setting [2]) was 7.1 nM.

Regarding `Cc1nnc(N[C@H](C)c2cccc(F)c2F)c2cc(N3CC4CC(C3)O4)ncc12` [Example 12-98], in test [1] (setting [2]), the Ki was found to be 19 nM.

For the molecule `Cc1nnc(N[C@H](C)c2cccc(F)c2Cl)c2cc(N3CC4CC(C3)O4)ncc12` [Example 12-77], the Ki in test [1] (setting [2]) amounted to 28.5 nM.

In the case of `Cc1c(F)cccc1[C@@H](C)Nc1nnc(C)c2cnc(N3CC4CC(C3)O4)cc12` [Example 12-126], the Ki in test [1] (setting [2]) was 14 nM.

For `Cc1nnc(N[C@H](C)c2cc(F)cc(C#N)c2F)c2cc(N3CCN4CCOC[C@@H]4C3)ncc12` [Example 12-120], the Ki in test [1] (setting [2]) was found to be 49.8 nM.

As to `Cc1c([C@@H](C)Nc2nnc(C)c3cnc(N4CC5CC(C4)O5)cc23)cc(F)cc1C(F)(F)F` [Example 12-113], the Ki in test [1] (setting [2]) amounted to 2.62 nM.

In the case of `Cc1c([C@@H](C)Nc2nnc(C)c3cnc(N4CCN5CCOC[C@@H]5C4)cc23)cc(F)cc1C(F)(F)F` [Example 12-112], the Ki in test [1] (setting [2]) worked out at 2.2 nM.

With `Cc1c(C#N)cccc1[C@@H](C)Nc1nnc(C)c2cnc(N3CC4(CCOC4)C3)cc12` [Example 12-71], in test [1] (setting [2]), the Ki was 4.48 nM.

As for `Cc1c(C#N)cccc1[C@@H](C)Nc1nnc(C)c2ccc(N3CCN4CCC[C@@H]4C3)cc12` [Example 10-81, 3-((R)-1-((7-((R)-hexahydropyrrolo[1,2-a]pyrazin-2(1H)-yl)-4-methylphthalazin-1-yl)amino)ethyl)-2-methylbenzonitrile], the Ki in test [1] (setting [2]) amounted to 0.9 nM.

In the case of `Cc1c(C#N)cccc1[C@@H](C)Nc1nnc(C)c2cnc(N3CCN4CCC[C@@H]4C3)cc12` [Example 12-73], the Ki in test [1] (setting [2]) came out at 1.67 nM.

`Cc1nnc(N[C@H](C)c2cc(N)cc(C(F)(F)F)n2)c2cc(N3CCN(C)CC3)ncc12` [Example 16-12, (R)-N-(1-(4-amino-6-(trifluoromethyl)pyridin-2-yl)ethyl)-4-methyl-7-(4-methylpiperazin-1-yl)pyrido[3,4-d]pyridazin-1-amine]: in test [1] (setting [2]), the Ki was 9.58 nM.

For `Cc1c(C#N)cccc1[C@@H](C)Nc1nnc(C)c2cc(F)c(N3CCN(C)CC3)cc12` [Example 18-3, (R)-3-(1-((6-fluoro-4-methyl-7-(4-methylpiperazin-1-yl)phthalazin-1-yl)amino)ethyl)-2-methylbenzonitrile], the Ki in test [1] (setting [2]) worked out at 1.37 nM.

`CNCc1cccc([C@@H](C)Nc2nnc(C)c3cc(OC)c(OC)cc23)c1C` [Example 5-3, (R)-6,7-dimethoxy-4-methyl-N-(1-(2-methyl-3-((methylamino)methyl)phenyl)ethyl)phthalazin-1-amine]: the Ki in test [1] (setting [2]) was 390 nM.

Turning to `Cc1nnc(N[C@H](C)c2cc(N)cc(C(F)(F)F)n2)c2cc(N3CC(C)(N(C)C)C3)ncc12` [Example 16-11, (R)-N-(1-(4-amino-6-(trifluoromethyl)pyridin-2-yl)ethyl)-7-(3-(dimethylamino)-3-methylazetidin-1-yl)-4-methylpyrido[3,4-d]pyridazin-1-amine], in test [1] (setting [2]), the Ki was 108 nM.

Consider `CCN1CCN(c2cc3c(N[C@H](C)c4cccc(C(F)(F)F)c4F)nnc(C)c3cn2)CC1` [Example 12-68], for which the Ki in test [1] (setting [2]) was 0.37 nM.

For `Cc1nnc(N[C@H](C)c2cc(F)cc(C#N)c2F)c2cc(N3CCC(C)(N(C)C)CC3)ncc12` [Example 12-123], in test [1] (setting [2]), the Ki amounted to 50.4 nM.

For the molecule `Cc1c([C@@H](C)Nc2nnc(C)c3cnc(N4CC(C)(O)C4)cc23)cc(F)cc1C(F)(F)F` [Example 12-111], the inhibition constant (Ki) in test [1] (setting [2]) was 8.09 nM.

For `CNCc1cccc([C@@H](C)Nc2nnc(C)c3ccc(N4CCOCC4)cc23)c1C` [Example 6-8, (R)-4-methyl-N-(1-(2-methyl-3-((methylamino)methyl)phenyl)ethyl)-7-morpholinophthalazin-1-amine], in test [1] (setting [2]), the Ki was determined as 39.2 nM.

As for `Cc1c(C#N)cccc1[C@@H](C)Nc1nnc(C)c2cnc(N3CCN4CCCC[C@@H]4C3)cc12` [Example 12-86], the Ki in test [1] (setting [2]) was 0.98 nM.

Regarding `Cc1nnc(N[C@H](C)c2cc(F)cc(C#N)c2F)c2cc(N3C[C@H]4C[C@@H]3CO4)ncc12` [Example 12-114], the Ki in test [1] (setting [2]) was found to be 69.3 nM.

With `Cc1nnc(N[C@H](C)c2cccc(F)c2Cl)c2cc(N3CCN4CCOC[C@@H]4C3)ncc12` [Example 12-74], the Ki in test [1] (setting [2]) is 10.5 nM.

Regarding `Cc1c(C#N)cccc1[C@@H](C)Nc1nnc(C)c2cnc(N3CC(C)(N4CCOCC4)C3)cc12` [Example 12-87], the Ki in test [1] (setting [2]) was 3.17 nM.

Take `Cc1c(C#N)cccc1[C@@H](C)Nc1nnc(C)c2ccc(N3CC4(CCCN4C)C3)cc12` [Example 10-84, (R)-2-methyl-3-(1-((4-methyl-7-(5-methyl-2,5-diazaspiro[3.4]octan-2-yl)phthalazin-1-yl)amino)ethyl)benzonitrile]: the Ki in test [1] (setting [2]) amounted to 2.01 nM.

On to `Cc1nnc(N[C@H](C)c2cc(F)cc(C#N)c2F)c2cc(N3CC(C)(N(C)C)C3)ncc12` [Example 12-122], for which the Ki in test [1] (setting [2]) came to 170 nM.

Regarding `Cc1nnc(N[C@H](C)c2cc(F)cc(C#N)c2F)c2cc(N3CC4CC(C3)O4)ncc12` [Example 12-121], the Ki in test [1] (setting [2]) turned out to be 39.2 nM.

As to `Cc1c(C#N)cc(F)cc1[C@@H](C)Nc1nnc(C)c2cnc(N3CC(C)(N(C)C)C3)cc12` [Example 12-108], the Ki in test [1] (setting [2]) is 22.1 nM.
